Test results reported in US20190315823A1, “SMALL CATIONIC ANTI-BIOFILM AND IDR PEPTIDES” (priority 2013, published 2019).
Ends that are not written are not given here.

Key:
[1] = tested on: human peripheral blood mononuclear cells (MCP-1); test: SPOT-synthesized derivative screen: production of chemokine MCP-1; format: cell-based; settings: Table 12, No LPS, human PBMC, peptide at ~18-24 μM; for MCP1: background subtracted 139 (HH2 derivatives), 170 (1018 derivatives), 242 (1002 and hybrid peptides) pg/ml
Summary of the method: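 MCP-1 was quantified by capture ELISA in cleared culture supernatants of treated human peripheral blood mononuclear cells. Cells came from heparinized volunteer blood via Ficoll gradient and were seeded at 0.75 to 1×10^6 cells/ml (37 °C, 5% CO2).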

[2] = tested on: methicillin resistant Staphylococcus aureus (MRSA) biofilm; settings: approximate peptide concentration […] (around 3 μg/ml); compared to untreated samples
Summary of the method: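 Peptide was present from inoculation onward, with bacteria seeded at 1/100 from overnight cultures into BM2 biofilm medium or Luria Broth. Crystal violet staining of surface-attached cells (A595) quantified biofilm reduction at 22–46 h. K. pneumoniae was additionally screened in a real-time Bioflux flow device for some peptides.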

[3] = tested on: LPS-stimulated human peripheral blood mononuclear cells (IL1-β); format: cell-based; settings: Table 12, cells stimulated with 10 ng/ml LPS; for IL1β Production: LPS alone 1313 (HH2 derivatives), 1927 (1018 derivatives), 2455 (1002 and hybrid peptides) pg/ml

Row | Substance | Fold increase in MCP1 cf. untreated cells [1] | MCP1 [1] | % Biofilm inhibition [2] | Fold change in IL1β relative to no peptide LPS stimulated cells [3] | IL1β Production [3]
1 | 1018-W7: single substituted 1018 peptide (VRLIVAWRIWRR-NH2) [Peptide 1018-W7] | 0.8 | -28 pg/mL | 55% | 0.37 | 483 pg/mL
2 | 1018-K5: single substituted 1018 peptide (VRLIKAVRIWRR-NH2) [Peptide 1018-K5] | 0.9 | -10 pg/mL | 29% | 1.31 | 1722 pg/mL
3 | HH2-W11: single substituted HH2 peptide (VQLRIRVAVIWA-NH2) | 15 | 2309 pg/mL | 45% | 1.04 | 1362 pg/mL
4 | HH2-R2: single substituted HH2 peptide (VRLRIRVAVIRA-NH2) | 4.6 | 604 pg/mL | 54% | 1.10 | 1438 pg/mL
5 | 1018-I12: single substituted 1018 peptide (VRLIVAVRIWRI-NH2) [Peptide 1018-I12] | 19 | 3003 pg/mL | 57% | 0.24 | 314 pg/mL
6 | 1018-L4: single substituted 1018 peptide (VRLLVAVRIWRR-NH2) [Peptide 1018-L4] | 0.9 | -10 pg/mL | 64% | 0.10 | 127 pg/mL
7 | 1018-A3: single substituted 1018 peptide (VRAIVAVRIWRR-NH2) [Peptide 1018-A3] | 0.4 | -110 pg/mL | 49% | 0.57 | 748 pg/mL
8 | 1018-Q6: single substituted 1018 peptide (VRLIVQVRIWRR-NH2) [Peptide 1018-Q6] | 0.7 | -54 pg/mL | 55% | 0.14 | 186 pg/mL
9 | 1002-G9: single substituted 1002 peptide (VQRWLIVWGIRK-NH2) [Peptide 1002-G9] | 2.8 | 444.4 pg/mL | 44% | 0.05 | 127 pg/mL
10 | 1018-G4: single substituted 1018 peptide (VRLGVAVRIWRR-NH2) [Peptide 1018-G4] | 1.2 | 32 pg/mL | 63% | 0.39 | 511 pg/mL
11 | 1018-R1: single substituted 1018 peptide (RRLIVAVRIWRR-NH2) [Peptide 1018-R1] | 5.9 | 832 pg/mL | 46% | 0.13 | 176 pg/mL
12 | HH2-W2: single substituted HH2 peptide (VWLRIRVAVIRA-NH2) | 12 | 1802 pg/mL | 70% | 0.98 | 1293 pg/mL
13 | 1002-I3: single substituted 1002 peptide (VQIWLIVWRIRK-NH2) [Peptide 1002-I3] | 13.2 | 2953.7 pg/mL | 62% | 0.05 | 127 pg/mL
14 | 1002-I4: single substituted 1002 peptide (VQRILIVWRIRK-NH2) [Peptide 1002-I4] | 2.1 | 273.6 pg/mL | 62% | 0.09 | 213 pg/mL
15 | HH2-A9: single substituted HH2 peptide (VQLRIRVAAIRA-NH2) | 1.9 | 157 pg/mL | 51% | 1.46 | 1923 pg/mL
16 | HH2-G9: single substituted HH2 peptide (VQLRIRVAGIRA-NH2) | 3.0 | 342 pg/mL | 59% | 1.04 | 1363 pg/mL
17 | 1018-V8: single substituted 1018 peptide (VRLIVAVVIWRR-NH2) [Peptide 1018-V8] | 1.2 | 29 pg/mL | 34% | 0.35 | 463 pg/mL
18 | 1002-K1: single substituted 1002 peptide (KQRWLIVWRIRK-NH2) [Peptide 1002-K1] | 26.4 | 6146.9 pg/mL | 75% | 0.05 | 127 pg/mL
19 | 1002-R6: single substituted 1002 peptide (VQRWLRVWRIRK-NH2) [Peptide 1002-R6] | 1.0 | 1.8 pg/mL | 13% | 0.25 | 605 pg/mL
20 | 1002-G5: single substituted 1002 peptide (VQRWGIVWRIRK-NH2) [Peptide 1002-G5] | 0.9 | -36.2 pg/mL | 59% | 0.25 | 621 pg/mL
21 | 1002-W11: single substituted 1002 peptide (VQRWLIVWRIWK-NH2) [Peptide 1002-W11] | 0.9 | -36.2 pg/mL | 37% | 0.05 | 127 pg/mL
22 | 1002-W7: single substituted 1002 peptide (VQRWLIWWRIRK-NH2) [Peptide 1002-W7] | 1.5 | 128.3 pg/mL | 62% | 0.05 | 127 pg/mL
23 | 1002-K9: single substituted 1002 peptide (VQRWLIVWKIRK-NH2) [Peptide 1002-K9] | 1.6 | 143.9 pg/mL | 50% | 0.05 | 127 pg/mL
24 | 1002-R2: single substituted 1002 peptide (VRRWLIVWRIRK-NH2) [Peptide 1002-R2] | 4.5 | 840.0 pg/mL | 60% | 0.05 | 127 pg/mL
25 | 1002-R12: single substituted 1002 peptide (VQRWLIVWRIRR-NH2) [Peptide 1002-R12] | 2.1 | 270.8 pg/mL | 62% | 0.05 | 127 pg/mL
